This test deals with T1, human TLR7 (Homo sapiens, UniProt Q9NYK1).
T1 construct: host or cells: HEK293 (HEK-Blue hTLR7)
T1 sequence (Q9NYK1 27-1049): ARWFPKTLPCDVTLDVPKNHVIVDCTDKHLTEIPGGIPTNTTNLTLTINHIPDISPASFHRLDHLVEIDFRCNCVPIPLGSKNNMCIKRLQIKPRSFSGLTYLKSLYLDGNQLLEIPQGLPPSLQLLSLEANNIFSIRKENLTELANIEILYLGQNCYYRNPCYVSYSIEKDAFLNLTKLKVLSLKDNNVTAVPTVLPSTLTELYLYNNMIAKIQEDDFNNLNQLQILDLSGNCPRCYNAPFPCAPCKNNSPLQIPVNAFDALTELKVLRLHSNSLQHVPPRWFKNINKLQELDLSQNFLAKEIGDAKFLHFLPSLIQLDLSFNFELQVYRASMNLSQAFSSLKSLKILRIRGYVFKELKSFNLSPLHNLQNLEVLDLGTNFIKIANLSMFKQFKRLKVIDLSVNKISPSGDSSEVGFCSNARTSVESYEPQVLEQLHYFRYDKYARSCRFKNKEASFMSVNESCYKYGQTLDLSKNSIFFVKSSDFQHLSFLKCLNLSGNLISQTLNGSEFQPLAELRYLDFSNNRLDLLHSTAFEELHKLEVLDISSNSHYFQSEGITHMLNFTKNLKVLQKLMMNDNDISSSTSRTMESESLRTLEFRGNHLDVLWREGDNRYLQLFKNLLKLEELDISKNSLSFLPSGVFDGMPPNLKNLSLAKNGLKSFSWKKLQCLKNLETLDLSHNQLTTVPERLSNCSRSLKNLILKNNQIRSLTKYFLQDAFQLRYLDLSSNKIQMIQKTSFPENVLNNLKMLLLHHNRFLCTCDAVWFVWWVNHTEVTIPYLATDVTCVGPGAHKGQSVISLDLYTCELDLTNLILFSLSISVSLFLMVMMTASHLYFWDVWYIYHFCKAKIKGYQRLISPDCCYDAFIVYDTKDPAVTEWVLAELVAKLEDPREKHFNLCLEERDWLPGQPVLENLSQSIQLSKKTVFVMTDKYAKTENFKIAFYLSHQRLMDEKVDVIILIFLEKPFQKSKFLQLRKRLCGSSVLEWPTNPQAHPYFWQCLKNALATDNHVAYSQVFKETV
Nature of the test: HEK293-Blue hTLR7 Reporter Assay (QUANTI-BLUE, SEAP readout). Particulars: HEK-Blue-hTLR7 cells, 24 hrs treatment, Table 1, B1-B232. Format: cell-based. The essentials: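 HEK-Blue-hTLR7 cells expressing NF-κB/AP-1-driven SEAP, 4×10^4 cells/well, treated 24 h at 37° C with increasing compound concentrations. Supernatant SEAP measured with Quanti-blue substrate (10-30 min, 37° C) at 620-655 nm; EC50 from sigmoidal dose-response fit.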
(In a reporter assay the amount or activity of a reporter protein is the signal.)

The EC50 is the concentration needed to bring the measured effect to its halfway point. Lower therefore signals a more potent agent. `CCCCOc1nc(N)c2ncc(Cc3cnc(N4CCN(C(=O)CNC)CC4)c(C)c3)n2n1` [Compound B32, 1-(4-(5-((4-amino-2-butoxyimidazo[2,1-f][1,2,4]triazin-7-yl)methyl)-3-methylpyridin-2-yl)piperazin-1-yl)-2-(methylamino)ethan-1-one]: the EC50 is 66 nM.
Regarding `CCC[C@H](C)Oc1nc(N)c2ncc(Cc3cnc(N4CCN(CCO)CC4)c(C)c3)n2n1` [Compound B199, (S)-2-(4-(5-((4-amino-2-(pentan-2-yloxy)imidazo[2,1-f][1,2,4]triazin-7-yl)methyl)-3-methylpyridin-2-yl)piperazin-1-yl)ethan-1-ol], the half-maximal effective concentration (EC50) came to 8.1 nM.
As for `CCCOc1nc(N)c2ncc(Cc3cnc(N4CCNCC4)c(C)c3)n2n1` [Compound B93, 7-((5-methyl-6-(piperazin-1-yl)pyridin-3-yl)methyl)-2-propoxyimidazo[2,1-f][1,2,4]triazin-4-amine], the figure is 641 nM; as for `CCC(CC)Nc1nc(N)c2ncc(Cc3cnc(N4CCN(C(=O)CN(C)C)CC4)c(C)c3)n2n1` [Compound B211, 1-(4-(5-((4-amino-2-(pentan-3-ylamino)imidazo[2,1-f][1,2,4]triazin-7-yl)methyl)-3-methylpyridin-2-yl)piperazin-1-yl)-2-(dimethylamino)ethan-1-one], 7.7 nM.
In turn, `CCCCc1nc(N)c2ncc(Cc3cnc(N4CCNCC4)c(C)c3)n2n1` [Compound B141, 2-butyl-7-((5-methyl-6-(piperazin-1-yl)pyridin-3-yl)methyl)imidazo[2,1-f][1,2,4]triazin-4-amine] registered a 50% effective concentration (EC50) of 154 nM.
Then `CCCCOc1nc(N)c2ncc(Cc3cnc(N4CCNCC4)c(C)c3)n2n1` [Compound B8, 2-butoxy-7-((5-methyl-6-(piperazin-1-yl)pyridin-3-yl)methyl)imidazo[2,1-f][1,2,4]triazin-4-amine], with 136 nM; and `CCCCOc1nc(N)c2ncc(Cc3ccc(N4CCNCC4)c(OC(C)C)c3)n2n1` [Compound B46, 2-butoxy-7-(3-isopropoxy-4-(piperazin-1-yl)benzyl)imidazo[2,1-f][1,2,4]triazin-4-amine], with 960 nM.
`CCCCCCCCCCCCCCCCCC(=O)N1CCN(c2ncc(Cc3cnc4c(N)nc(OCCCC)nn34)cc2C)CC1` [Compound B129, 1-(4-(5-((4-amino-2-butoxyimidazo[2,1-f][1,2,4]triazin-7-yl)methyl)-3-methylpyridin-2-yl)piperazin-1-yl)octadecan-1-one] came in with a concentration giving a half-maximal response (EC50) of over 10000 nM.
`CCCCOc1nc(N)c2ncc(Cc3cnc(N4CCC(CCN(C)C)CC4)c(C)c3)n2n1` [Compound B110, 2-butoxy-7-((6-(4-(2-(dimethylamino)ethyl)piperidin-1-yl)-5-methylpyridin-3-yl)methyl)imidazo[2,1-f][1,2,4]triazin-4-amine] had an EC50 of 43 nM.
Then `CCCCOc1nc(N)c2ncc(Cc3cnc(N4CCC(CN(C)C)C4)c(C)c3)n2n1` (stereo not shown) [Compound B105, 2-butoxy-7-((6-(3-((dimethylamino)methyl)pyrrolidin-1-yl)-5-methylpyridin-3-yl)methyl)imidazo[2,1-f][1,2,4]triazin-4-amine], with 177 nM; and `CCCCOc1nc(N)c2ncc(Cc3cnc(N4CCN(C(=O)CN(CC)CC)CC4)c(C)c3)n2n1` [Compound B170, 1-(4-(5-((4-amino-2-butoxyimidazo[2,1-f][1,2,4]triazin-7-yl)methyl)-3-methylpyridin-2-yl)piperazin-1-yl)-2-(diethylamino)ethan-1-one], with 29 nM; and `CCC[C@@H](C)Nc1nc(N)c2ncc(Cc3cnc(N4CCC(CNC)CC4)c(C)c3)n2n1` (single isomer, unassigned) [Compound B214], with 23 nM.
Compound `CCCC(CCC)Oc1nc(N)c2ncc(Cc3cnc(N4CCNCC4)c(C)c3)n2n1` [Compound B143, 2-(heptan-4-yloxy)-7-((5-methyl-6-(piperazin-1-yl)pyridin-3-yl)methyl)imidazo[2,1-f][1,2,4]triazin-4-amine] yielded an EC50 of 7.8 nM.
As for `CCCC(CCC)Nc1nc(N)c2ncc(Cc3cnc(N4CCC(N(C)C)CC4)c(C)c3)n2n1` [Compound B184, 7-((6-(4-(dimethylamino)piperidin-1-yl)-5-methylpyridin-3-yl)methyl)-N2-(heptan-4-yl)imidazo[2,1-f][1,2,4]triazine-2,4-diamine], the figure is 3.6 nM.
As for `C=CC(=O)N1CCN(c2ncc(Cc3cnc4c(N)nc(OCCCC)nn34)cc2C)CC1` [Compound B44, 1-(4-(5-((4-amino-2-butoxyimidazo[2,1-f][1,2,4]triazin-7-yl)methyl)-3-methylpyridin-2-yl)piperazin-1-yl)prop-2-en-1-one], the figure is 6660 nM.
`CCC[C@@H](C)Nc1nc(N)c2ncc(Cc3cnc(N4CCC(N(C)C)CC4)c(C)c3)n2n1` (single isomer, unassigned) [Compound B185] yielded an EC50 of 25 nM.
Then `CCCC(CO)Nc1nc(N)c2ncc(Cc3cnc(N4CCC(CNC)CC4)c(C)c3)n2n1` (stereo not shown) [Compound B232, 2-((4-amino-7-((5-methyl-6-(4-((methylamino)methyl)piperidin-1-yl)pyridin-3-yl)methyl)imidazo[2,1-f][1,2,4]triazin-2-yl)amino)pentan-1-ol], with 31 nM; and `CCCCOc1nc(N)c2ncc(Cc3cnc(C4CCNCC4)c(OC)c3)n2n1` [Compound B17, 2-butoxy-7-((5-methoxy-6-(piperidin-4-yl)pyridin-3-yl)methyl)imidazo[2,1-f][1,2,4]triazin-4-amine], with 149 nM.
As for `CCCCOc1nc(N)c2ncc(Cc3ccc(C4CCNCC4)nc3)n2n1` [Compound B19, 2-butoxy-7-((6-(piperidin-4-yl)pyridin-3-yl)methyl)imidazo[2,1-f][1,2,4]triazin-4-amine], the figure is 227 nM; as for `CCC[C@H](C)Nc1nc(N)c2ncc(Cc3cnc(N4CCNCC4)c(C)c3)n2n1` (single isomer, unassigned) [Compound B148], 6.5 nM.
Then `CCCCOc1nc(N)c2ncc(Cc3ccc(N4CCNCC4)nc3)n2n1` [Compound B6, 2-butoxy-7-((6-(piperazin-1-yl)pyridin-3-yl)methyl)imidazo[2,1-f][1,2,4]triazin-4-amine], with 421 nM; and `CC[C@@H](C)Oc1nc(N)c2ncc(Cc3cnc(N4CCN(C(=O)CNC)CC4)c(C)c3)n2n1` [Compound B159, (R)-1-(4-(5-((4-amino-2-(sec-butoxy)imidazo[2,1-f] [1,2,4]triazin-7-yl)methyl)-3-methylpyridin-2-yl)piperazin-1-yl)-2-(methylamino)ethan-1-one], with 48 nM.
The compound `CCCCOc1nc(N)c2ncc(Cc3cnc(N4CCC5(CCCC5)CC4)c(C)c3)n2n1` [Compound B83, 2-butoxy-7-((5-methyl-6-(8-azaspiro[4.5]decan-8-yl)pyridin-3-yl)methyl)imidazo[2,1-f][1,2,4]triazin-4-amine] displayed an EC50 of over 10000 nM.
As for `CCC[C@@H](C)Oc1nc(N)c2ncc(Cc3cnc(N4CCN(C(=O)CN(C)C)CC4)c(C)c3)n2n1` [Compound B124, (R)-1-(4-(5-((4-amino-2-(pentan-2-yloxy)imidazo[2,1-f][1,2,4]triazin-7-yl)methyl)-3-methylpyridin-2-yl)piperazin-1-yl)-2-(dimethylamino)ethan-1-one], the EC50 was found to be 51 nM.
`CCCCOc1nc(N)c2ncc(Cc3ccc(N4CCNCC4)c(C)c3)n2n1` [Compound B36, 2-butoxy-7-(3-methyl-4-(piperazin-1-yl)benzyl)imidazo[2,1-f][1,2,4]triazin-4-amine] returned a concentration for a half-maximal effect (EC50) of 182 nM.
The compound `CCC[C@H](C)Oc1nc(N)c2ncc(Cc3cnc(N4CCN(C(=O)CNCC(C)C)CC4)c(C)c3)n2n1` [Compound B212, (S)-1-(4-(5-((4-amino-2-(pentan-2-yloxy)imidazo[2,1-f][1,2,4]triazin-7-yl)methyl)-3-methylpyridin-2-yl)piperazin-1-yl)-2-(isobutylamino)ethan-1-one] came in with a concentration for a half-maximal effect (EC50) of 6.2 nM.
Then `Cc1cc(Cc2cnc3c(N)nc(OCCc4ccccc4)nn23)cnc1N1CCNCC1` [Compound B30, 7-((5-methyl-6-(piperazin-1-yl)pyridin-3-yl)methyl)-2-phenethoxyimidazo[2,1-f][1,2,4]triazin-4-amine], with over 10000 nM; and `Cc1cc(Cc2cnc3c(N)nc(OC4CCCCC4)nn23)cnc1N1CCNCC1` [Compound B167, 2-(cyclohexyloxy)-7-((5-methyl-6-(piperazin-1-yl)pyridin-3-yl)methyl)imidazo[2,1-f][1,2,4]triazin-4-amine], with 497 nM.

These data come from patent publication US12612407B2, “Imidazo[2,1-f][1,2,4]triazin-4-amine derivatives as TLR7 agonist” (BEIGENE, LTD., priority 2020, dated 2026).
